This note sets out measurements from ChEMBL document CHEMBL3734655, “Identification of camphor derivatives as novel M2 ion channel inhibitors of influenza A virus” (Medchemcomm, 2015).

The subject of experiment [1] is Influenza A virus. Description: Antiviral activity against M2 ion channel S31N mutant expressing amantadine-resistant Influenza A virus infected in MDCK cells preincubated for 30 mins followed by viral infection measured after 72 hrs by CCK-8 assay. Type of experiment: functional, organism-based. In general terms: Formazan colour is commonly taken as a measure of viable cells.

The test system of experiment [2] is Influenza A virus. Description: Antiviral activity against amantadine-resistant Influenza A virus (A/WSN/1933) infected in MDCK cells preincubated for 30 mins followed by viral infection measured after 72 hrs by CCK-8 assay. It is filed as functional, organism-based. The settings on record: A/WSN/1933(H1N1).

Active and inactive are the calls of the source. The rule behind the calls is not given here.

As for `C[C@H]1[C@H]([C@H](C)N)C[C@@H]2C[C@H]1C2(C)C`, the outcome in experiment [1] and in experiment [2] was inactive.

As to `N[C@H]1C[C@@H]2CC[C@H]1C2`, the outcome in experiment [1] and in experiment [2] was inactive.

For `C[C@@H](N)[C@H]1C[C@H]2CC[C@]1(C)C2(C)C.Cl`, the result in experiment [1] and in experiment [2] was inactive.

For the molecule `NC1CC2CCC1C2` (stereo not drawn), the outcome in experiment [1] and in experiment [2] was inactive.

For the molecule `CC1(C)[C@@H]2CC[C@@]1(C)[C@@H](N)C2` (relative stereo), the outcome in experiment [1] and in experiment [2] was inactive.

Turning to `C[C@H]1[C@H](CN)C[C@@H]2C[C@H]1C2(C)C`, the outcome in experiment [1] and in experiment [2] was inactive.

Regarding `CC1(C)[C@H]2CC[C@](C)(C2)[C@H]1CN`, the result in experiment [1] and in experiment [2] was inactive.

As to `C[C@H]1[C@H](N)C[C@@H]2C[C@H]1C2(C)C`, the outcome in experiment [1] and in experiment [2] was inactive.

For `CC1(C)[C@@H]2CC[C@@]1(C)[C@@H](CN)C2`, the result in experiment [1] and in experiment [2] was inactive.
